According to US10246429B2, “Vinyl fluoride cyclopropyl fused thiazin-2-amine compounds as beta-secretase inhibitors and methods of use” (AMGEN INC., priority 2015, dated 2019):

How the values were obtained:
BACE1 [1] = biological target: T1, BACE1 (Homo sapiens (Human), UniProt P56817); test: In vitro enzymatic BACE1 FRET assay; assay type: biochemical; conditions: read-out: IC50 IP (μM) BACE1 Enzyme
Target sequence in this assay (P56817 46-501): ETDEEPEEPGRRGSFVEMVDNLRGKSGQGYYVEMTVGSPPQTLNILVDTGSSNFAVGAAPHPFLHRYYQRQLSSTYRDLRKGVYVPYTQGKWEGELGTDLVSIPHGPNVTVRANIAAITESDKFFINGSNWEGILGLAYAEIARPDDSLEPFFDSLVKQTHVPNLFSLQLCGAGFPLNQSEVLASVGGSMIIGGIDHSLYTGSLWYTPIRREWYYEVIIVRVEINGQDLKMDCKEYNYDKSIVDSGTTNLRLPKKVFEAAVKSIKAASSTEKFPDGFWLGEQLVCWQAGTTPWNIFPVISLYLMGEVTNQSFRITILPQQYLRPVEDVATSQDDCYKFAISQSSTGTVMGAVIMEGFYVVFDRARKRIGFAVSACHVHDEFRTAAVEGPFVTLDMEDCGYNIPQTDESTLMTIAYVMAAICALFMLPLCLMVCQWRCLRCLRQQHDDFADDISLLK
Text: (§1) In Vitro Enzymatic BACE1 and BACE2 FRET (Fluorescence Resonance Energy Transfer) Assays (Enzyme Assay Data in Table 1)

BACE2 = BACE2 (Homo sapiens (Human), UniProt Q9Y5Z0); test: In vitro enzymatic BACE2 FRET assay; assay type: biochemical; conditions: read-out: IC50 IP (μM) BACE2 Enzyme
Text: as §1

Cathepsin D (CatD) = Cathepsin D (CatD) (Homo sapiens (Human), UniProt P07339); test: CatD assay; assay type: biochemical; conditions: read-out: IC50 IP (μM) CatD
BACE1 [2] = biological target: T1, BACE1; test: BACE1 cell assay; assay type: cell-based
Target sequence in this assay (P56817 46-501, species assumed): as the sequence (P56817 46-501) above

[3] = read-out: IC50 IP (μM) BACE1 Cell

Chain of Cathepsin D (CatD) (P07339 65-412, species assumed): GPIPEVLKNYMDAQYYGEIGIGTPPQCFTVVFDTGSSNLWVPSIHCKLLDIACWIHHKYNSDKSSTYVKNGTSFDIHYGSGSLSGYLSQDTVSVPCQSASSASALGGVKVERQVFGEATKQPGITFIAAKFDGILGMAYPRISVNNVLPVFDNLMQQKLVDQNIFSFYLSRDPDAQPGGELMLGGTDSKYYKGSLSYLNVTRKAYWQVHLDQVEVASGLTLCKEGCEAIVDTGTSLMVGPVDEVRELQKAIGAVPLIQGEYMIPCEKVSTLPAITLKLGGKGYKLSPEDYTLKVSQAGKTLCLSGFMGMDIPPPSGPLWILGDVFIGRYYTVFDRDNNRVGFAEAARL
Chain of BACE2 (Q9Y5Z0 63-518): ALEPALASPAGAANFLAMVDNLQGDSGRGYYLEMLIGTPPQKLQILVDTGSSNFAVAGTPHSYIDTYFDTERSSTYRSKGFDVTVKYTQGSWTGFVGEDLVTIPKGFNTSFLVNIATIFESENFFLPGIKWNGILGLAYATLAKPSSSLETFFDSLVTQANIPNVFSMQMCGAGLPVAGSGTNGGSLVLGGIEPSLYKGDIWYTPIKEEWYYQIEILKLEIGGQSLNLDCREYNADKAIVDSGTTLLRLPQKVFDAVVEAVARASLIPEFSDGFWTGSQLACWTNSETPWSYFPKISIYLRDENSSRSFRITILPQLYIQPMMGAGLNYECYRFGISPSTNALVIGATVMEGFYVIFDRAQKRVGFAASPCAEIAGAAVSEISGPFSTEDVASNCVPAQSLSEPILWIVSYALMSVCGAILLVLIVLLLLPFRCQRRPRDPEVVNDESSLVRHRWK

Row | Compound | IC50 (BACE1 [1]) | IC50 (BACE2) | IC50 (Cathepsin D (CatD)) | IC50 (BACE1 [2]; [3]) | IC50 (BACE1 [2])
1 | C[C@H]1CN(C(=O)[C@]23C[C@H]2[C@@](C)(c2cc(/C=C(\F)c4ccc(C#N)cn4)ccc2F)N=C(N)S3)[C@@H](C)CO1 [Example 329, 6-((Z)-2-(3-((1S,5S,6S)-3-amino-1-((2S,5S)-2,5-dimethylmorpholine-4-carbonyl)-5-methyl-2-thia-4-azabicyclo[4.1.0]hept-3-en-5-yl)-4-fluorophenyl)-1-fluorovinyl)nicotinonitrile] | 0.0045 µM | 0.124 µM | 73.9 µM | 0.0035 µM | –
2 | C[C@@H]1CCN1C(=O)[C@]12C[C@H]1[C@@](C)(c1cc(/C=C(\F)c3ccc(Cl)cn3)ccc1F)N=C(N)S2 [Example 120, ((1S,5S,6S)-3-amino-5-(5-((Z)-2-(5-chloropyridin-2-yl)-2-fluorovinyl)-2-fluorophenyl)-5-methyl-2-thia-4-azabicyclo[4.1.0]hept-3-en-1-yl)((R)-2-methylazetidin-1-yl)methanone] | 0.00275 µM | 0.0108 µM | 132 µM | 0.0267 µM | –
3 | CN(C)C(=O)[C@]12C[C@H]1[C@@](C)(c1cc(/C=C(\F)c3cnc(OCc4ncco4)cn3)ccc1F)N=C(N)S2 [Example 154, (1S,5S,6S)-3-amino-5-(2-fluoro-5-((Z)-2-fluoro-2-(5-(oxazol-2-ylmethoxy)pyrazin-2-yl)vinyl)phenyl)-N,N,5-trimethyl-2-thia-4-azabicyclo[4.1.0]hept-3-ene-1-carboxamide] | 0.00798 µM | 0.0455 µM | 107 µM | 0.0049 µM | –
4 | C[C@H]1CN(C(=O)[C@]23C[C@H]2[C@@](C)(c2cc(/C=C(\F)c4ccc(C#N)cn4)ccc2F)N=C(N)S3)CCO1 [Example 321, 6-((Z)-2-(3-((1S,5S,6S)-3-amino-5-methyl-1-((S)-2-methylmorpholine-4-carbonyl)-2-thia-4-azabicyclo[4.1.0]hept-3-en-5-yl)-4-fluorophenyl)-1-fluorovinyl)nicotinonitrile] | 0.0035 µM | 0.111 µM | 578 µM | 0.0027 µM | –
5 | COC[C@H](C)Oc1cnc(/C(F)=C/c2ccc(F)c([C@@]3(C)N=C(N)S[C@@]4(C(=O)N(C)C)C[C@H]43)c2)cn1 [Example 214, (1S,5S,6S)-3-amino-5-(2-fluoro-5-((Z)-2-fluoro-2-(5-(((S)-1-methoxypropan-2-yl)oxy)pyrazin-2-yl)vinyl)phenyl)-N,N,5-trimethyl-2-thia-4-azabicyclo[4.1.0]hept-3-ene-1-carboxamide] | 0.014 µM | 0.072 µM | 134 µM | 0.024 µM | –
6 | CN(C)C(=O)[C@]12C[C@H]1[C@@](C)(c1cc(/C=C(\F)c3cnc(C#N)nc3)ccc1F)N=C(N)S2 [Example 173, (1S,5S,6S)-3-amino-5-(5-((Z)-2-(2-cyanopyrimidin-5-yl)-2-fluorovinyl)-2-fluorophenyl)-N,N,5-trimethyl-2-thia-4-azabicyclo[4.1.0]hept-3-ene-1-carboxamide] | 0.15 µM | 0.3 µM | 225 µM | 0.924 µM | –
7 | C#C[C@H](C)Oc1cnc(/C(F)=C/c2ccc(F)c([C@@]3(C)N=C(N)S[C@@]4(COC)C[C@H]43)c2)cn1 [Example 264] | 0.003 µM | 0.917 µM | 363 µM | 0.026 µM | –
8 | COC[C@]12C[C@H]1[C@@](C)(c1cc(/C=C(\F)c3cnc(OCc4cc(C)on4)cn3)ccc1F)N=C(N)S2 [Example 275] | 0.248 µM | 1.2 µM | 144 µM | 2 µM | –
9 | COC[C@]12C[C@H]1[C@@](CF)(c1cc(/C=C(/F)c3ccc(Cl)cn3)ccc1F)N=C(N)S2 [Example 101, (1S,5S,6S)-5-(5-((E)-2-(5-chloropyridin-2-yl)-2-fluorovinyl)-2-fluorophenyl)-5-(fluoromethyl)-1-(methoxymethyl)-2-thia-4-azabicyclo[4.1.0]hept-3-en-3-amine] | 0.303 µM | 0.281 µM | 154 µM | 1.6 µM | –
10 | CN(C)C(=O)[C@]12C[C@H]1[C@@](C)(c1cc(/C=C(\F)c3cnc(OCC(F)(F)C(F)F)cn3)cnc1F)N=C(N)S2 [Example 291, (1S,5S,6S)-3-amino-5-(2-fluoro-5-((Z)-2-fluoro-2-(5-(2,2,3,3-tetrafluoropropoxy)pyrazin-2-yl)vinyl)pyridin-3-yl)-N,N,5-trimethyl-2-thia-4-azabicyclo[4.1.0]hept-3-ene-1-carboxamide] | 0.0406 µM | 0.106 µM | 290 µM | – | 0.326 µM
11 | CC(=O)[C@]12C[C@H]1[C@@](C)(c1cc(/C=C(\F)c3ccc(C#N)cn3)ccc1F)N=C(N)S2 [Example 238, 6-((Z)-2-(3-((1S,5S,6S)-1-acetyl-3-amino-5-methyl-2-thia-4-azabicyclo[4.1.0]hept-3-en-5-yl)-4-fluorophenyl)-1-fluorovinyl)nicotinonitrile] | 0.0121 µM | 0.245 µM | 892 µM | – | 0.0066 µM
12 | C[C@@H]1COC[C@@H](C)N1C(=O)[C@]12C[C@H]1[C@@](C)(c1cc(/C=C(\F)c3ccc(C#N)cn3)ccc1F)N=C(N)S2 [Example 314, 6-((Z)-2-(3-((1S,5S,6S)-3-amino-1-((3R,5R)-3,5-dimethylmorpholine-4-carbonyl)-5-methyl-2-thia-4-azabicyclo[4.1.0]hept-3-en-5-yl)-4-fluorophenyl)-1-fluorovinyl)nicotinonitrile] | 0.0047 µM | 0.24 µM | 447 µM | 0.0067 µM | –
13 | C[C@]1(c2cc(/C=C(\F)c3ccc(C4COC4)cn3)ccc2F)N=C(N)S[C@@]2(C(=O)N3CCOCC3)C[C@H]21 [Example 340, ((1S,5S,6S)-3-amino-5-(2-fluoro-5-((Z)-2-fluoro-2-(5-(oxetan-3-yl)pyridin-2-yl)vinyl)phenyl)-5-methyl-2-thia-4-azabicyclo[4.1.0]hept-3-en-1-yl)(morpholino)methanone] | 0.545 µM | 3.21 µM | 298 µM | 0.457 µM | –
14 | Cc1noc(COc2cnc(/C(F)=C/c3ccc(F)c([C@@]4(C)N=C(N)S[C@@]5(C(=O)N(C)C)C[C@H]54)c3)cn2)n1 [Example 217, (1S,5S,6S)-3-amino-5-(2-fluoro-5-((Z)-2-fluoro-2-(5-((3-methyl-1,2,4-oxadiazol-5-yl)methoxy)pyrazin-2-yl)vinyl)phenyl)-N,N,5-trimethyl-2-thia-4-azabicyclo[4.1.0]hept-3-ene-1-carboxamide] | 0.002 µM | 0.07 µM | 438 µM | 0.002 µM | –
15 | C[C@]1(c2cc(/C=C(\F)c3ccc(C#CC4CC4)cn3)ccc2F)N=C(N)S[C@@]2(C(=O)N3CCOCC3)C[C@H]21 [Example 357, ((1S,5S,6S)-3-amino-5-(5-((Z)-2-(5-(cyclopropylethynyl)pyridin-2-yl)-2-fluorovinyl)-2-fluorophenyl)-5-methyl-2-thia-4-azabicyclo[4.1.0]hept-3-en-1-yl)(morpholino)methanone] | 0.015 µM | 0.43 µM | 29.1 µM | 0.155 µM | –
16 | C#CCOc1cnc(/C(F)=C/c2ccc(F)c([C@@]3(C)N=C(N)S[C@@]4(S(C)(=O)=O)C[C@H]43)c2)cn1 [Example 227, (1R,5S,6S)-5-(2-fluoro-5-((Z)-2-fluoro-2-(5-(prop-2-yn-1-yloxy)pyrazin-2-yl)vinyl)phenyl)-5-methyl-1-(methylsulfonyl)-2-thia-4-azabicyclo[4.1.0]hept-3-en-3-amine] | 0.0006 µM | 0.058 µM | 55.1 µM | – | 0.0105 µM
17 | CN(C)C(=O)[C@]12C[C@H]1[C@@](C)(c1cc(/C=C(\F)c3cnc(OCC4CC4)cn3)ccc1F)N=C(N)S2 [Example 211, (1S,5S,6S)-3-amino-5-(5-((Z)-2-(5-(cyclopropylmethoxy)pyrazin-2-yl)-2-fluorovinyl)-2-fluorophenyl)-N,N,5-trimethyl-2-thia-4-azabicyclo[4.1.0]hept-3-ene-1-carboxamide] | 0.022 µM | 0.044 µM | 67.8 µM | 0.247 µM | –
18 | C#CCOc1cnc(/C(F)=C/c2cnc(F)c([C@@]3(C)N=C(N)S[C@@]4(C(=O)N5CC[C@H](F)C5)C[C@H]43)c2)cn1 [Example 280, ((1S,5S,6S)-3-amino-5-(2-fluoro-5-((Z)-2-fluoro-2-(5-(prop-2-yn-1-yloxy)pyrazin-2-yl)vinyl)pyridin-3-yl)-5-methyl-2-thia-4-azabicyclo[4.1.0]hept-3-en-1-yl)((S)-3-fluoropyrrolidin-1-yl)methanone] | 0.0013 µM | 0.119 µM | 115 µM | 0.0016 µM | –
19 | C[C@]1(c2cc(/C=C(\F)c3cnc(C#N)cn3)ccc2F)N=C(N)S[C@@]2(C(=O)N3CCCCC3)C[C@H]21 [Example 201, 5-((Z)-2-(3-((1S,5S,6S)-3-amino-5-methyl-1-(piperidine-1-carbonyl)-2-thia-4-azabicyclo[4.1.0]hept-3-en-5-yl)-4-fluorophenyl)-1-fluorovinyl)pyrazine-2-carbonitrile] | 0.001 µM | 0.074 µM | 16.7 µM | 0.009 µM | –
20 | C[C@]1(c2cc(/C=C(\F)c3cnc(N4CCOC4=O)cn3)ccc2F)N=C(N)S[C@@]2(C(=O)N3CCOCC3)C[C@H]21 [Example 346, 3-(5-((Z)-2-(3-((1S,5S,6S)-3-amino-5-methyl-1-(morpholine-4-carbonyl)-2-thia-4-azabicyclo[4.1.0]hept-3-en-5-yl)-4-fluorophenyl)-1-fluorovinyl)pyrazin-2-yl)oxazolidin-2-one] | 1.4 µM | 0.942 µM | 25.5 µM | 2.19 µM | –
21 | CN(C)C(=O)[C@]12C[C@H]1[C@@](C)(c1cc(/C(F)=C/c3ccc(C#N)cc3)ccc1F)N=C(N)S2 [Example 186, (1S,5S,6S)-3-amino-5-(5-((Z)-2-(4-cyanophenyl)-1-fluorovinyl)-2-fluorophenyl)-N,N,5-trimethyl-2-thia-4-azabicyclo[4.1.0]hept-3-ene-1-carboxamide] | 0.128 µM | 0.302 µM | 48.7 µM | 0.575 µM | –
